Measured values published in patent US20170050957A1, “4-AMINO-6-(HETEROCYCLIC)PICOLINATES AND 6-AMINO-2-(HETEROCYCLIC)PYRIMIDINE-4-CARBOXYLATES AND THEIR USE AS HERBICIDES” (Dow AgroSciences LLC, priority 2013, published 2017).
Read-outs that look alike come from different tables or passages of the source.

How the values were obtained:
[1] = system: Key Broadleaf Weed and Crop Species; assay: Post-emergent Test II herbicidal activity (Table 15); type: in vivo; conditions: post-emergence, 336 h, 14 d; for pest or weed control at 35 g/ha: 35 g ai/ha; for pest or weed control at 70 g/ha: 70 g ai/ha; for pest or weed control at 140 g/ha: 140 g ai/ha
In short: (§1)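 Visual injury rating (0 = none, 100 = complete kill) taken 14 d after treatment, relative to untreated plants. Compounds in acetone/DMSO with crop oil concentrate and Triton X-155 were track-sprayed at 187 L/ha onto seedlings at the first-second true leaf stage.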

[2] = system: Key Grass and Sedge Weeds as well as Grass Crops; assay: Post-emergent Test II herbicidal activity (Table 16); type: in vivo; conditions: post-emergence, 336 h, 14 d; for pest or weed control at 35 g/ha: 35 g ai/ha; for pest or weed control at 70 g/ha: 70 g ai/ha; for pest or weed control at 140 g/ha: 140 g ai/ha
In short: as §1

[3] = Abutilon theophrasti, velvetleaf (Abutilon theophrasti), read-out: Visual Growth Reduction (%) 14 Days After Application, ABUTH
[4] = Amaranthus retroflexus, redroot pigweed (Amaranthus retroflexus), read-out: Visual Growth Reduction (%) 14 Days After Application, AMARE
[5] = Brassica napus, oilseed rape, canola (Brassica napus), read-out: Visual Growth Reduction (%) 14 Days After Application, BRSNN
[6] = Chenopodium album, lambsquarters (Chenopodium album), read-out: Visual Growth Reduction (%) 14 Days After Application, CHEAL
[7] = Euphorbia heterophylla, wild poinsettia (Euphorbia heterophylla), read-out: Visual Growth Reduction (%) 14 Days After Application, EPHHL
[8] = Helianthus annuus, sunflower (Helianthus annuus), read-out: Visual Growth Reduction (%) 14 Days After Application, HELAN
[9] = Cyperus esculentus, yellow nutsedge (Cyperus esculentus), read-out: Visual Growth Reduction (%) 14 Days After Application, CYPES
[10] = Echinochloa crus-galli, barnyardgrass (Echinochloa crus-galli), read-out: Visual Growth Reduction (%) 14 Days After Application, ECHCG
[11] = Oryza sativa, rice (Oryza sativa), read-out: Visual Growth Reduction (%) 14 Days After Application, ORYSA
[12] = Setaria faberi, giant foxtail (Setaria faberi), read-out: Visual Growth Reduction (%) 14 Days After Application, SETFA
[13] = Triticum aestivum, wheat, spring (Triticum aestivum), read-out: Visual Growth Reduction (%) 14 Days After Application, TRZAS
[14] = Zea mays, maize, corn (Zea mays), read-out: Visual Growth Reduction (%) 14 Days After Application, ZEAMX

Row | Compound | melting point [°C] | pest or weed control at 35 g/ha [1, 3] [%] | pest or weed control at 70 g/ha [1, 3] [%] | pest or weed control at 140 g/ha [1, 3] [%] | pest or weed control at 35 g/ha [1, 4] [%] | pest or weed control at 70 g/ha [1, 4] [%] | pest or weed control at 140 g/ha [1, 4] [%] | pest or weed control at 35 g/ha [1, 5] [%] | pest or weed control at 70 g/ha [1, 5] [%] | pest or weed control at 140 g/ha [1, 5] [%] | pest or weed control at 35 g/ha [1, 6] [%] | pest or weed control at 70 g/ha [1, 6] [%] | pest or weed control at 140 g/ha [1, 6] [%] | pest or weed control at 35 g/ha [1, 7] [%] | pest or weed control at 70 g/ha [1, 7] [%] | pest or weed control at 140 g/ha [1, 7] [%] | pest or weed control at 35 g/ha [1, 8] [%] | pest or weed control at 70 g/ha [1, 8] [%] | pest or weed control at 140 g/ha [1, 8] [%] | pest or weed control at 35 g/ha [2, 9] [%] | also measured
1 | COC(=O)c1nc(-c2cccc3cc[nH]c23)c(F)c(N)c1Cl [Compound 1.47] | 96 to 100 | 0 to 29 | 0 to 29 | 0 to 29 | 0 to 29 | 0 to 29 | 30 to 44 | 0 to 29 | 0 to 29 | 0 to 29 | 75 to 84 | 75 to 84 | 85 to 94 | 0 to 29 | 0 to 29 | 0 to 29 | 0 to 29 | 0 to 29 | 45 to 59 | 0 to 29 | pest or weed control at 70 g/ha [2, 9]: 0 to 29%; pest or weed control at 140 g/ha [2, 9]: 0 to 29%; pest or weed control at 35 g/ha [2, 10]: 0 to 29%; pest or weed control at 70 g/ha [2, 10]: 0 to 29%; pest or weed control at 140 g/ha [2, 10]: 0 to 29%; pest or weed control at 35 g/ha [2, 11]: 0 to 29%; pest or weed control at 70 g/ha [2, 11]: 0 to 29%; pest or weed control at 140 g/ha [2, 11]: 0 to 29%; pest or weed control at 35 g/ha [2, 12]: 0 to 29%; pest or weed control at 70 g/ha [2, 12]: 0 to 29%; pest or weed control at 140 g/ha [2, 12]: 0 to 29%; pest or weed control at 35 g/ha [2, 13]: 0 to 29%; pest or weed control at 70 g/ha [2, 13]: 0 to 29%; pest or weed control at 140 g/ha [2, 13]: 0 to 29%; pest or weed control at 35 g/ha [2, 14]: 0 to 29%; pest or weed control at 70 g/ha [2, 14]: 0 to 29%; pest or weed control at 140 g/ha [2, 14]: 0 to 29%
2 | COC(=O)c1nc(-c2ccc3sccc3c2)c(C)c(N)c1Cl [Compound 3.06] | 155 to 159 | 45 to 59 | 60 to 74 | 85 to 94 | 85 to 94 | 85 to 94 | 95 to 100 | 30 to 44 | 30 to 44 | 45 to 59 | 30 to 44 | 60 to 74 | 60 to 74 | 0 to 29 | 0 to 29 | 30 to 44 | 95 to 100 | 95 to 100 | 95 to 100 | 0 to 29 | pest or weed control at 70 g/ha [2, 9]: 0 to 29%; pest or weed control at 140 g/ha [2, 9]: 0 to 29%; pest or weed control at 35 g/ha [2, 10]: 0 to 29%; pest or weed control at 70 g/ha [2, 10]: 0 to 29%; pest or weed control at 140 g/ha [2, 10]: 0 to 29%; pest or weed control at 35 g/ha [2, 11]: 0 to 29%; pest or weed control at 70 g/ha [2, 11]: 0 to 29%; pest or weed control at 140 g/ha [2, 11]: 0 to 29%; pest or weed control at 35 g/ha [2, 12]: 0 to 29%; pest or weed control at 70 g/ha [2, 12]: 0 to 29%; pest or weed control at 140 g/ha [2, 12]: 0 to 29%; pest or weed control at 35 g/ha [2, 13]: 0 to 29%; pest or weed control at 70 g/ha [2, 13]: 0 to 29%; pest or weed control at 140 g/ha [2, 13]: 0 to 29%; pest or weed control at 35 g/ha [2, 14]: 0 to 29%; pest or weed control at 70 g/ha [2, 14]: 0 to 29%; pest or weed control at 140 g/ha [2, 14]: 0 to 29%
